Conditions: Liquid, Vibrating tube method

CCCC[n+]1ccn(C)c1.O=S(=O)([N-]S(=O)(=O)C(F)(F)F)C(F)(F)F
Conditions | mass density [kg/m3]
293.15 K, 100 kPa | 1441.8
293.15 K, 101.33 kPa | 1441.34
293.15 K, 250 kPa | 1441.9
293.15 K, 500 kPa | 1442.1
293.15 K, 1000 kPa | 1442.4
293.15 K, 2000 kPa | 1443.2
293.15 K, 4990 kPa | 1445.4
293.15 K, 10000 kPa | 1449
293.15 K, 15000 kPa | 1452.5
293.15 K, 20000 kPa | 1456
293.15 K, 25010 kPa | 1459.3
293.15 K, 30000 kPa | 1462.6
293.15 K, 35000 kPa | 1465.8
293.15 K, 40000 kPa | 1469.1
293.15 K, 45000 kPa | 1472.2
293.15 K, 50000 kPa | 1475.3
293.15 K, 55000 kPa | 1478.3
293.15 K, 59970 kPa | 1481.3
294.15 K, 101.33 kPa | 1440.37
295.15 K, 101.33 kPa | 1439.4
296.15 K, 101.33 kPa | 1438.43
297.15 K, 101.33 kPa | 1437.46
298.15 K, 101.33 kPa | 1436.5
299.15 K, 101.33 kPa | 1435.53
300.15 K, 101.33 kPa | 1434.57
301.15 K, 101.33 kPa | 1433.61
302.15 K, 101.33 kPa | 1432.64
303.15 K, 100 kPa | 1432.3
303.15 K, 101.33 kPa | 1431.69
303.15 K, 250 kPa | 1432.4
303.15 K, 500 kPa | 1432.6
303.15 K, 1000 kPa | 1432.9
303.15 K, 2000 kPa | 1433.7
303.15 K, 5000 kPa | 1436
303.15 K, 10000 kPa | 1439.7
303.15 K, 15000 kPa | 1443.3
303.15 K, 20000 kPa | 1446.8
303.15 K, 25000 kPa | 1450.2
303.15 K, 30000 kPa | 1453.6
303.15 K, 34990 kPa | 1456.9
303.15 K, 40000 kPa | 1460.2
303.15 K, 45010 kPa | 1463.4
303.15 K, 50000 kPa | 1466.5
303.15 K, 54990 kPa | 1469.6
303.15 K, 60010 kPa | 1472.7
304.15 K, 101.33 kPa | 1430.73
305.15 K, 101.33 kPa | 1429.77
306.15 K, 101.33 kPa | 1428.82
307.15 K, 101.33 kPa | 1427.86
308.15 K, 101.33 kPa | 1426.9
309.15 K, 101.33 kPa | 1425.95
310.15 K, 101.33 kPa | 1425
311.15 K, 101.33 kPa | 1424.05
312.15 K, 101.33 kPa | 1423.1
313.15 K, 100 kPa | 1422.8
313.15 K, 101.33 kPa | 1422.15
313.15 K, 250 kPa | 1422.9
313.15 K, 500 kPa | 1423.1
313.15 K, 1000 kPa | 1423.5
313.15 K, 2000 kPa | 1424.3
313.15 K, 5000 kPa | 1426.6
313.15 K, 10000 kPa | 1430.4
313.15 K, 15010 kPa | 1434.1
313.15 K, 20010 kPa | 1437.7
313.15 K, 25000 kPa | 1441.2
313.15 K, 30000 kPa | 1444.7
313.15 K, 34990 kPa | 1448
313.15 K, 40000 kPa | 1451.4
313.15 K, 45010 kPa | 1454.6
313.15 K, 50010 kPa | 1457.9
313.15 K, 55000 kPa | 1461
313.15 K, 60000 kPa | 1464.1
314.15 K, 101.33 kPa | 1421.2
315.15 K, 101.33 kPa | 1420.25
316.15 K, 101.33 kPa | 1419.3
317.15 K, 101.33 kPa | 1418.36
318.15 K, 101.33 kPa | 1417.41

Source: the NIST ThermoML archive (doi:10.1016/j.fluid.2010.03.010)
